Key:
Format in all cases: in vivo
[1] = tested on: soybean (Glycine max var. Winchester); assay: Preemergence herbicidal activity, soybean; settings: Rate of Application 0.3 Kg/Ha, examined after 12-17 days
[2] = tested on: green foxtail (Setaria viridis); assay: Preemergence herbicidal activity, green foxtail; settings: Rate of Application 0.3 Kg/Ha, examined after 12-17 days
[3] = tested on: common chickweed (Stellaria media); assay: Preemergence herbicidal activity, chickweed; settings: Rate of Application 0.3 Kg/Ha, examined after 12-17 days
[4] = tested on: common chickweed (Stellaria media); assay: Postemergence herbicidal activity, chickweed; settings: rate of application 0.3 Kg/Ha, rated after 12-17 days
[5] = tested on: velvetleaf (Abutilon theophrasti); assay: Postemergence herbicidal activity, velvetleaf; settings: rate of application 0.3 Kg/Ha, rated after 12-17 days
[6] = tested on: Johnsongrass (Sorghum halepense); assay: Preemergence herbicidal activity, johnsongrass; settings: Rate of Application 0.3 Kg/Ha, examined after 12-17 days
[7] = tested on: morningglory (Ipomea lacunosa or Ipomea hederacea); assay: Postemergence herbicidal activity, morningglory; settings: rate of application 0.3 Kg/Ha, rated after 12-17 days
[8] = tested on: wheat (Triticum aestivum var. Lew); assay: Postemergence herbicidal activity, wheat; settings: rate of application 0.3 Kg/Ha, rated after 12-17 days
[9] = tested on: common cocklebur (Xanthium strumarium L.); assay: Preemergence herbicidal activity, cocklebur; settings: Rate of Application 0.3 Kg/Ha, examined after 12-17 days
[10] = tested on: wheat (Triticum aestivum var. Lew); assay: Preemergence herbicidal activity, wheat; settings: Rate of Application 0.3 Kg/Ha, examined after 12-17 days
[11] = tested on: velvetleaf (Abutilon theophrasti); assay: Preemergence herbicidal activity, velvetleaf; settings: Rate of Application 0.3 Kg/Ha, examined after 12-17 days
[12] = tested on: common cocklebur (Xanthium strumarium L.); assay: Postemergence herbicidal activity, cocklebur; settings: rate of application 0.3 Kg/Ha, rated after 12-17 days
[13] = tested on: soybean (Glycine max var. Winchester); assay: Postemergence herbicidal activity, soybean; settings: rate of application 0.3 Kg/Ha, rated after 12-17 days
[14] = tested on: morningglory (Ipomea lacunosa or Ipomea hederacea); assay: Preemergence herbicidal activity, morningglory; settings: Rate of Application 0.3 Kg/Ha, examined after 12-17 days
[15] = tested on: field corn (Zea mays var. Pioneer 3732); assay: Preemergence herbicidal activity, corn; settings: Rate of Application 0.3 Kg/Ha, examined after 12-17 days
[16] = tested on: blackgrass (Aloepecurus myosuroides); assay: Preemergence herbicidal activity, blackgrass; settings: Rate of Application 0.3 Kg/Ha, examined after 12-17 days
[17] = tested on: blackgrass (Aloepecurus myosuroides); assay: Postemergence herbicidal activity, blackgrass; settings: rate of application 0.3 Kg/Ha, rated after 12-17 days
[18] = tested on: green foxtail (Setaria viridis); assay: Postemergence herbicidal activity, green foxtail; settings: rate of application 0.3 Kg/Ha, rated after 12-17 days
[19] = tested on: Johnsongrass (Sorghum halepense); assay: Postemergence herbicidal activity, johnsongrass; settings: rate of application 0.3 Kg/Ha, rated after 12-17 days
[20] = tested on: field corn (Zea mays var. Pioneer 3732); assay: Postemergence herbicidal activity, corn; settings: rate of application 0.3 Kg/Ha, rated after 12-17 days

SMILES	PREEMERGENCE HERBICIDAL ACTIVITY (% CONTROL) SOY [1] [%]	PREEMERGENCE HERBICIDAL ACTIVITY (% CONTROL) SETVI [2] [%]	PREEMERGENCE HERBICIDAL ACTIVITY (% CONTROL) STEME [3] [%]	Postemergence herbicidal activity (% control) STEME [4] [%]	Postemergence herbicidal activity (% control) ABUTH [5] [%]	PREEMERGENCE HERBICIDAL ACTIVITY (% CONTROL) SORHA [6] [%]	Postemergence herbicidal activity (% control) IPOSS [7] [%]	Postemergence herbicidal activity (% control) WHT [8] [%]	PREEMERGENCE HERBICIDAL ACTIVITY (% CONTROL) XANPE [9] [%]	PREEMERGENCE HERBICIDAL ACTIVITY (% CONTROL) WHT [10] [%]	PREEMERGENCE HERBICIDAL ACTIVITY (% CONTROL) ABUTH [11] [%]	Postemergence herbicidal activity (% control) XANPE [12] [%]	Postemergence herbicidal activity (% control) SOY [13] [%]	PREEMERGENCE HERBICIDAL ACTIVITY (% CONTROL) IPOSS [14] [%]	PREEMERGENCE HERBICIDAL ACTIVITY (% CONTROL) CRN [15] [%]	PREEMERGENCE HERBICIDAL ACTIVITY (% CONTROL) ALOMY [16] [%]	Postemergence herbicidal activity (% control) ALOMY [17] [%]	Postemergence herbicidal activity (% control) SETVI [18] [%]	Postemergence herbicidal activity (% control) SORHA [19] [%]	Postemergence herbicidal activity (% control) CRN [20] [%]
Cn1c(C(F)(F)F)cc(=O)n(-c2c(F)cc(Br)c3oc(NS(C)(=O)=O)nc23)c1=O [Compound 108]	0	50	40	0	20	30	60	20	10	0	70	10	50	50	10	50	10	70	20	60
Cc1nc2c(-n3c(=O)cc(C(F)(F)F)n(N)c3=O)c(F)cc(Cl)c2o1 [Compound 112]	100	100	100	100	100	100	100	100	100	100	100	100	100	100	100	100	100	100	100	100
CCCC(C)c1cc2c(Cl)cc(F)c(-n3c(=O)cc(C(F)(F)F)n(C)c3=O)c2o1 (stereo not drawn) [Compound 229]	100	100	100	100	100	100	100	60	95	70	100	100	95	100	90	80	70	100	100	80
C=Cc1cc2c(Cl)cc(F)c(-n3c(=O)cc(C(F)(F)F)n(C)c3=O)c2o1 [Compound 230]	100	100	100	90	100	100	100	40	100	40	100	100	95	100	80	80	70	100	90	80
CC(Cl)c1cc2c(Cl)cc(F)c(-n3c(=O)cc(C(F)(F)F)n(C)c3=O)c2o1 (stereo not drawn) [Compound 234]	100	100	100	100	100	100	100	100	100	100	100	100	100	100	100	80	100	100	100	100
CC(F)c1cc2c(Cl)cc(F)c(-n3c(=O)cc(C(F)(F)F)n(C)c3=O)c2o1 (stereo not drawn) [Compound 235]	100	100	100	100	100	100	100	100	100	90	100	100	100	100	100	80	100	100	100	100

Source: patent publication US6352958B1, “Cycloimido-substituted benzofused heterocyclic herbicides” (FMC Corporation, priority 1997, dated 2002)
